These results are taken from patent WO2017093157A1, “Piperidine, pyrrolidine and 2-oxo-1,3-oxazinane derivatives as inhibitors of bacterial efflux-pumps for the treatment of microbial infections” (Basilea Pharmaceutica AG, priority 2015, dated 2017).

For one assay, the system named is E. coli ATCC25922. Kind of assay: Antibacterial activity in combination with linezolid, E. coli. Type of assay: cell-based. Conditions: Escherichia coli, linezolid 128 μg/mL, compound 50 μM, OD625 23 h minus 1 h.
The next assay has as its system P. aeruginosa PAOl. Kind of assay: Antibacterial activity in combination with linezolid, P. aeruginosa. Type of assay: cell-based. Conditions: Pseudomonas aeruginosa, linezolid 128 μg/mL, compound 50 μM, OD625 23 h minus 1 h.

Each structure is given as a SMILES string.

Consider `NCC1COC(=O)N(Cc2cc(C=O)cc(OCc3ccc(Cl)cc3Br)c2)C1` (centres unmarked) [Example 7, 3-[[5-(aminomethyl)-2-oxo-l,3-oxazinan-3-yl]methyl]-5-[(2-bromo-4-chloro-phenyl)methoxy]benzaldehyde], for which the residual growth (% of uninhibited control) at 50 µM in the assay on E. coli ATCC25922 is not above 50%. As to `C[N+]1(Cc2cc(OCCc3c[nH]cn3)cc(OCc3ccc(Cl)cc3Br)c2)CCC(CN)C1` (stereo not drawn) [Example 23, [l-[[3-[(2-bromo-4-chloro-phenyl)methoxy]-5-[2-(7H-imidazol-4-yl)ethoxy]phenyl]methyl]-l-methyl-pyrrolidin-l-ium-3-yl]methanamine], the residual growth (% of uninhibited control) at 50 µM with P. aeruginosa PAOl was not above 50%.
